The test system of one data set is MS. The data set is described as follows: Case report Example 2: course of MS (symptoms, brain MRI). Format: in vivo, human. The source says: A person was well, when they developed numbness and tingling in their lower extremities. A magnetic resonance imaging (MRI) of the brain, along with spinal fluid findings, were consistent with MS. […] From then, they were asymptomatic except for three exacerbations which also responded to intravenous methyl prednisone. They took no other medications for MS.
(§1) They were placed on interferon β-1a. […], they developed weakness in their lower extremities and was switched to natalizumab. […] […], independent of their MS, they developed NSCLC with a genetic mutation. Natalizumab was discontinued and erlotinib was initiated at an oral dose of 150 mg daily. […] Brain MRIs with contrast two months prior to starting erlotinib, immediately prior to starting erlotinib, and after three and six months on erlotinib are unchanged.

In another data set the test system is psoriasis. Put plainly: Example 7: group of patients with psoriasis, placebo controlled. Format: in vivo, human. The note with it: erlotinib 150, gefitinib 250, icotinib 300 mg daily for several weeks, versus placebo. As for the experimental part: A group of patients with psoriasis is identified. The patients are administered erlotinib (150 mg daily), gefitinib (250 mg daily), icotinib (300 mg daily), or placebo in for several weeks. […] Following clinical improvement, the dose of erlotinib, gefitinb, or icotinib is reduced to a maintenance dose as low as 25 mg, 50 mg, or 75 mg daily, respectively.

The subject of another data set is insulin resistance. Put plainly: Example 6: group of patients with insulin resistance, placebo controlled. The note with it: erlotinib 150, gefitinib 250, icotinib 300 mg daily for several weeks, versus placebo. It counts as in vivo, human. Here is the method: A group of patients with insulin resistance is identified. The patients are administered erlotinib (150 mg daily), gefitinib (250 mg daily), icotinib (300 mg daily), or placebo in for several weeks. […] Following clinical improvement, the dose of erlotinib, gefitinb, or icotinib is reduced to a maintenance dose as low as 25 mg, 50 mg, or 75 mg daily, respectively.

A further data set concerns multiple sclerosis. Put plainly: Example 5: group of patients with multiple sclerosis, placebo controlled. It counts as in vivo, human. The note with it: erlotinib 150, gefitinib 250, icotinib 300 mg daily for several weeks, versus placebo. As for the experimental part:
A group of patients with multiple sclerosis is identified. The patients are administered erlotinib (150 mg daily), gefitinib (250 mg daily), icotinib (300 mg daily), or placebo in for several weeks. […] Following clinical improvement, the dose of erlotinib, gefitinb, or icotinib is reduced to a maintenance dose as low as 25 mg, 50 mg, or 75 mg daily, respectively.

Data set [1] relates to NSCLC with a genetic mutation. The data set is described as follows: Case report Example 2: NSCLC in MS patient on erlotinib. It counts as in vivo, human. The note with it: person; oral 150 mg daily; after six months. Here is the method:
as §1

For data set [2], the system named is metastatic NSCLC with a genetic mutation. Put plainly: Case report Example 1: metastatic NSCLC patient on daily oral erlotinib. It counts as in vivo, human. The note with it: person, 150 mg daily oral. The source says: (§2) A person, whose child has a history of recurrent-remitting MS, developed severe back pain. […] After one year, their serum level of antithyroid peroxidase was reduced from 1719 to 366.

Another data set has as its system rheumatoid arthritis. Put plainly: Example 3: patient with rheumatoid arthritis. Format: in vivo, human. The settings on record: 150 mg daily for several weeks.
The next data set has as its system mild plaque psoriasis. Put plainly: Case report Example 1: psoriasis under erlotinib. Format: in vivo, human. The settings on record: person, 150 mg daily oral.
Description: as §2

The conditions of data set [3]: on the face, scalp, neck, and back; cited from earlier work.
The subject of data set [4] is type 2 insulin requiring diabetes mellitus. Put plainly: Case report Example 1: diabetes / insulin requirement under erlotinib. It counts as in vivo, human. The settings on record: person, 150 mg daily oral.
Description: as §2

Another data set has as its system Crohn's disease. The data set is described as follows: Example 4: patient with Crohn's disease. Format: in vivo, human. The note with it: 150 mg daily for several weeks.
In another data set the test system is Hashimoto's thyroiditis. Put plainly: Case report Example 1: Hashimoto's thyroiditis, serum antithyroid peroxidase under erlotinib. Format: in vivo, human. The note with it: person; 150 mg daily oral; after one year; reduced from 1719 before treatment.
Description: as §2

Description for Crohn's disease: A patient is diagnosed with Crohn's disease. Erlotinib is administered in a dose of 150 mg daily for several weeks.
Description for rheumatoid arthritis: A patient is diagnosed with rheumatoid arthritis. Erlotinib is administered in a dose of 150 mg daily for several weeks.

Turning to natalizumab, in the data set on MS (patient, since the switch), the MS symptoms entry is listed as “asymptomatic since that time”.
In the case of `C#Cc1cccc(Nc2ncnc3cc4c(cc23)OCCOCCOCCO4)c1` [icotinib], the clinical outcome with psoriasis, in the data set with insulin resistance and in the data set on multiple sclerosis was “Clinical improvement is seen” throughout.
Consider `COc1cc2ncnc(Nc3ccc(F)c(Cl)c3)c2cc1OCCCN1CCOCC1` [gefitinib], for which the clinical outcome with psoriasis, in the data set on insulin resistance and in the data set on multiple sclerosis was “Clinical improvement is seen” throughout.
For the molecule methyl prednisone, the “response of MS at first presentation” value with MS (patient one, intravenous) was “achieved total remission”. Moreover, in the data set with MS (patient, intravenous), the “response of three MS exacerbations” value is given as “responded”.
Take `C#Cc1cccc(Nc2ncnc3cc(OCCOC)c(OCCOC)cc23)c1` [erlotinib]: the cancer status entry in [1] is “total remission”. Also, the “evidence of NSCLC” value in [2] (after seven months) is “no evidence of NSCLC or psoriasis”. Also, the severe back pain entry in data set [2] (three weeks after starting) is recorded as “their pain abated”. Also, the clinical outcome with rheumatoid arthritis, in the data set with psoriasis, in the data set with insulin resistance, with multiple sclerosis and with Crohn's disease was “Clinical improvement is seen” throughout. The evidence of psoriasis entry in the data set on mild plaque psoriasis (after seven months) is reported as “no evidence of NSCLC or psoriasis”. Moreover, the psoriasis result in the data set on mild plaque psoriasis (three weeks after starting) is reported as “their psoriasis cleared”. Moreover, in data set [3], the “most common adverse effect” value is given as “mild to moderate reversible papulopustular skin eruption”. The “insulin requirement / new medication to control diabetes” value in data set [4] (after seven months) was “remains off of insulin and has not required any new medication to control their diabetes”. Besides, in data set [4] (after ten weeks), the insulin requirement entry is reported as “no longer required insulin”. Also, in the data set on MS (person with MS, oral 150 mg daily, after three and six months), the “enhancing lesions on brain MRI” value is listed as “no enhancing lesions”. Besides, the “brain MRIs with contrast” value in the data set on MS (person with MS, oral 150 mg daily, after three and six months versus before starting) is reported as “unchanged”. The “serum level of antithyroid peroxidase” value in the data set on Hashimoto's thyroiditis stood at 366.

Source of the values: patent publication US20130281448A1, “SMALL MOLECULE COMPOUNDS FOR TARGETING INFLAMMATORY CONDITIONS” (priority 2012, published 2013).
